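Results reflect a 48-hour exposure of cells in 96-well plates to compound at five concentrations. Here, GI50 denotes the concentration required for 50% inhibition of growth. TGI is the concentration that stops growth completely.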
How the values were obtained:
Test in all cases: NCI tumour cell line growth inhibition, 48 h
[1] = test system: SK-MEL-2 melanoma
[2] = test system: IGROV1 ovarian
[3] = test system: CAKI-1 renal
[4] = test system: NCI-H522 lung
[5] = test system: TK-10 renal
[6] = test system: MCF7 breast
[7] = test system: BT-549 breast
[8] = test system: NCI/ADR-RES ovarian
[9] = test system: SNB-75 CNS
[10] = test system: HOP-62 NSCLC
[11] = test system: CCRF-CEM leukemia
[12] = test system: OVCAR-3 ovarian
[13] = test system: SK-OV-3 ovarian
[14] = test system: SF-268 CNS
[15] = test system: SF-295 CNS
[16] = test system: K-562 leukemia
[17] = test system: HCT-15 colon
[18] = test system: MDA-MB-231 breast
[19] = test system: KM12 colon
[20] = test system: UO-31 renal
[21] = test system: ACHN renal
[22] = test system: SR leukemia
[23] = test system: HT29 colon
[24] = test system: HCC-2998 colon
[25] = test system: MDA-MB-435
[26] = test system: PC-3 prostate
[27] = test system: SF-539 CNS
[28] = test system: RXF 393 renal
[29] = test system: M14 melanoma
[30] = test system: T-47D breast
[31] = test system: NCI-H23 lung
[32] = test system: HL-60(TB) leukemia
[33] = test system: HOP-92 NSCLC
[34] = test system: SK-MEL-5 melanoma
[35] = test system: MALME-3M melanoma
[36] = test system: RPMI-8226 leukemia
[37] = test system: EKVX NSCLC
[38] = test system: U251 CNS
[39] = test system: 786-0 renal
[40] = test system: NCI-H226 lung
[41] = test system: COLO 205 colon
[42] = test system: HCT-116 colon
[43] = test system: A549 NSCLC
[44] = test system: HS 578T breast
[45] = test system: SNB-19 CNS
[46] = test system: A498 renal
[47] = test system: NCI-H460 lung
[48] = test system: OVCAR-5 ovarian
[49] = test system: SN12C renal
[50] = test system: UACC-257 melanoma
[51] = test system: OVCAR-4 ovarian
[52] = test system: SK-MEL-28 melanoma
[53] = test system: DU-145 prostate
[54] = test system: OVCAR-8 ovarian
[55] = test system: MOLT-4 leukemia
[56] = test system: SW-620 colon
[57] = test system: LOX IMVI melanoma
[58] = test system: UACC-62 melanoma

COc1ccc(C(=O)/C=C/c2ccc(C)cc2)cc1OC
GI50 [1]: 15.9 µM
TGI [1]: 40.1 µM
GI50 [2]: 12.3 µM
TGI [2]: 58.6 µM
GI50 [3]: 18.1 µM
TGI [3]: 52.8 µM
GI50 [4]: 11.1 µM
TGI [4]: 26.4 µM
GI50 [5]: 16.4 µM
TGI [5]: 37.7 µM
GI50 [6]: 3.09 µM
TGI [6]: 15.1 µM
GI50 [7]: 14.9 µM
TGI [7]: 51.5 µM
GI50 [8]: 11.7 µM
TGI [8]: 28.3 µM
GI50 [9]: 8.93 µM
TGI [9]: 21.3 µM
GI50 [10]: 14.6 µM
TGI [10]: 27.8 µM
GI50 [11]: 25.1 µM
TGI [11]: 61.2 µM
GI50 [12]: 2550 nM
TGI [12]: 12.7 µM
GI50 [13]: 14 µM
TGI [13]: 27.4 µM
GI50 [14]: 11.7 µM
TGI [14]: 24.4 µM
GI50 [15]: 12.1 µM
TGI [15]: 28.4 µM
GI50 [16]: 8.31 µM
TGI [16]: 50.2 µM
GI50 [17]: 8.52 µM
TGI [17]: 22.1 µM
GI50 [18]: 14.3 µM
TGI [18]: 33.1 µM
GI50 [19]: 5.68 µM
TGI [19]: 19 µM
GI50 [20]: 11 µM
TGI [20]: 26.8 µM
GI50 [21]: 14.2 µM
TGI [21]: 28.1 µM
GI50 [22]: 2400 nM
TGI [22]: 6.83 µM
GI50 [23]: 3.93 µM
TGI [23]: 15.3 µM
GI50 [24]: 14.4 µM
TGI [24]: 27.4 µM
GI50 [25]: 15.5 µM
TGI [25]: 32 µM
GI50 [26]: 15.4 µM
TGI [26]: 32.4 µM
GI50 [27]: 5.32 µM
TGI [27]: 18.2 µM
GI50 [28]: 12.2 µM
TGI [28]: 26.4 µM
GI50 [29]: 13.7 µM
TGI [29]: 26.5 µM
GI50 [30]: 3.05 µM
TGI [30]: 15.8 µM
GI50 [31]: 10.4 µM
TGI [31]: 22.8 µM
GI50 [32]: 23.2 µM
TGI [32]: 62.4 µM
GI50 [33]: 12.6 µM
TGI [33]: 27 µM
GI50 [34]: 12.5 µM
TGI [34]: 25 µM
GI50 [35]: 15.9 µM
TGI [35]: 36 µM
GI50 [36]: 17.5 µM
TGI [36]: 47 µM
GI50 [37]: 18.4 µM
TGI [37]: 42.9 µM
GI50 [38]: 4.78 µM
TGI [38]: 17.3 µM
GI50 [39]: 15.4 µM
TGI [39]: 28.7 µM
GI50 [40]: 13.5 µM
TGI [40]: 31.5 µM
GI50 [41]: 10.1 µM
TGI [41]: 21.6 µM
GI50 [42]: 4.69 µM
TGI [42]: 17.7 µM
GI50 [43]: 11.2 µM
TGI [43]: 26 µM
GI50 [44]: 12.5 µM
TGI [44]: 30.3 µM
GI50 [45]: 12.8 µM
TGI [45]: 25.5 µM
GI50 [46]: 12.5 µM
TGI [46]: 25 µM
GI50 [47]: 7.77 µM
TGI [47]: 20.5 µM
GI50 [48]: 16.1 µM
TGI [48]: 29.6 µM
GI50 [49]: 13.1 µM
TGI [49]: 26.9 µM
GI50 [50]: 16.2 µM
TGI [50]: 30.3 µM
GI50 [51]: 12.2 µM
TGI [51]: 24.7 µM
GI50 [52]: 16.5 µM
TGI [52]: 30.1 µM
GI50 [53]: 3200 nM
TGI [53]: 14.4 µM
GI50 [54]: 11.8 µM
TGI [54]: 27.6 µM
GI50 [55]: 16.6 µM
TGI [55]: 47.2 µM
GI50 [56]: 10.2 µM
TGI [56]: 21.8 µM
GI50 [57]: 13 µM
TGI [57]: 25.6 µM

Clc1nc(Cl)c2ncn(Cc3cccc(Cn4cnc5c(Cl)nc(Cl)nc54)c3)c2n1
GI50 [1]: 2.79 µM
TGI [1]: 7.72 µM
GI50 [2]: 7.33 µM
TGI [2]: 20.2 µM
GI50 [3]: 12 µM
TGI [3]: 26.3 µM
GI50 [4]: 2.9 µM
TGI [4]: 7.01 µM
GI50 [5]: 2.46 µM
TGI [5]: 7.31 µM
GI50 [6]: 3.66 µM
TGI [6]: 37.4 µM
GI50 [7]: 3.35 µM
TGI [7]: 11.3 µM
GI50 [8]: 12.5 µM
TGI [8]: 35 µM
GI50 [9]: 5.58 µM
TGI [9]: 22.6 µM
GI50 [10]: 4.97 µM
TGI [10]: 18 µM
GI50 [11]: 2.25 µM
TGI [11]: 5.32 µM
GI50 [12]: 2380 nM
TGI [12]: 7.22 µM
GI50 [14]: 13 µM
TGI [14]: 31.5 µM
GI50 [15]: 16.5 µM
TGI [15]: 30.9 µM
GI50 [16]: 3.11 µM
TGI [16]: 17.1 µM
GI50 [17]: 5.78 µM
TGI [17]: 22.3 µM
GI50 [18]: 2.66 µM
TGI [18]: 7 µM
GI50 [19]: 2.87 µM
TGI [19]: 8.95 µM
GI50 [20]: 1.92 µM
TGI [20]: 3.55 µM
GI50 [21]: 2.53 µM
TGI [21]: 6.21 µM
GI50 [22]: 2940 nM
TGI [22]: 8.41 µM
GI50 [23]: 4.42 µM
TGI [23]: > 100 µM
GI50 [24]: 2.38 µM
TGI [24]: 7.11 µM
GI50 [25]: 7.29 µM
TGI [25]: 22.2 µM
GI50 [26]: 3.99 µM
TGI [26]: 13.6 µM
GI50 [27]: 1.39 µM
TGI [27]: 3.13 µM
GI50 [28]: 1.92 µM
TGI [28]: 3.72 µM
GI50 [29]: 2.77 µM
TGI [29]: 7.65 µM
GI50 [30]: 3.01 µM
TGI [30]: 8.43 µM
GI50 [31]: 8.5 µM
TGI [31]: 22.1 µM
GI50 [32]: 2.9 µM
TGI [32]: 82.8 µM
GI50 [33]: 6.13 µM
TGI [33]: 22.4 µM
GI50 [34]: 2.47 µM
TGI [34]: 5.87 µM
GI50 [35]: 3.11 µM
TGI [35]: 9.84 µM
GI50 [36]: 2.59 µM
TGI [36]: 11.1 µM
GI50 [37]: 3.09 µM
TGI [37]: 11 µM
GI50 [38]: 3.91 µM
TGI [38]: 13.9 µM
GI50 [39]: 12.3 µM
TGI [39]: 26.6 µM
GI50 [40]: 4.76 µM
TGI [40]: 26.8 µM
GI50 [41]: 3.37 µM
TGI [41]: 11.3 µM
GI50 [42]: 2.45 µM
TGI [42]: 6.28 µM
GI50 [43]: 11.3 µM
TGI [43]: 26.3 µM
GI50 [44]: 2.69 µM
TGI [44]: 7.29 µM
GI50 [45]: 3.02 µM
TGI [45]: 13.7 µM
GI50 [46]: 4.59 µM
TGI [46]: 17.2 µM
GI50 [47]: 3.7 µM
TGI [47]: 13.6 µM
GI50 [48]: 15 µM
TGI [48]: 28.8 µM
GI50 [49]: 4.73 µM
TGI [49]: 18.3 µM
GI50 [50]: 4.78 µM
TGI [50]: 17.2 µM
GI50 [51]: 3.69 µM
TGI [51]: 13.2 µM
GI50 [52]: 4.25 µM
TGI [52]: 22.1 µM
GI50 [53]: 1720 nM
TGI [53]: 3.09 µM
GI50 [58]: 2410 nM
TGI [58]: 5.91 µM
GI50 [54]: 4.67 µM
TGI [54]: 18.6 µM
GI50 [55]: 3.48 µM
TGI [55]: 13.7 µM
GI50 [56]: 1.82 µM
TGI [56]: 3.34 µM
GI50 [57]: 2.23 µM
TGI [57]: 5.57 µM
